{
  "source": "ChEMBL document CHEMBL4680354",
  "about": "“Design, synthesis and biological evaluation of novel indanone containing spiroisoxazoline derivatives with selective COX-2 inhibition as anticancer agents” (Bioorg Med Chem, 2021)",
  "key": {"MCF7 [1]": {"system": "MCF7", "test": "Induction of apoptosis in human MCF7 cells assessed as late apoptotic cells at IC50 measured after 72 hrs by Annexin-V/propidium iodide staining-based flow cytometric analysis (reference value: 92.7%)", "type": "functional"}, "MCF7 [2]": {"system": "MCF7", "test": "Induction of apoptosis in human MCF7 cells assessed as early apoptotic cells at IC50 measured after 72 hrs by Annexin-V/propidium iodide staining-based flow cytometric analysis (reference value: 1.1%)", "type": "functional"}, "MCF-10A": {"system": "MCF-10A", "test": "Antiproliferative activity against human MCF10A cells assessed as reduction in cell viability incubated for 72 hrs by MTT assay", "type": "functional, cell-based"}, "MCF7 [3]": {"system": "MCF7", "test": "Antiproliferative activity against human cells MCF-7 assessed as reduction in cell viability incubated for 24 hrs by MTT assay", "type": "functional, cell-based", "settings": "MCF7, 24 h"}, "MCF7 [4]": {"system": "MCF7", "test": "Induction of apoptosis in human MCF7 cells assessed as necrotic cells at IC50 measured after 72 hrs by Annexin-V/propidium iodide staining-based flow cytometric analysis (reference value: 4.7%)", "type": "functional"}, "MCF7 [5]": {"system": "MCF7", "test": "Antiproliferative activity against human cells MCF-7 assessed as reduction in cell viability incubated for 48 hrs by MTT assay", "type": "functional, cell-based", "settings": "MCF7, 48 h"}, "HEK293": {"system": "HEK293", "test": "Cytotoxicity against human HEK293 cells assessed as reduction in cell viability incubated for 72 hrs by MTT assay", "type": "cell-based", "settings": "HEK293, 72 h"}, "HT-29": {"system": "HT-29", "test": "Antiproliferative activity against human HT-29 cells assessed as reduction in cell viability incubated for 72 hrs by MTT assay", "type": "functional, cell-based", "settings": "HT-29, 72 h"}, "[6]": {"target": "T1, Prostaglandin G/H synthase 1 (Ovis aries, UniProt P05979)", "T1 sequence (P05979 whole entry)": "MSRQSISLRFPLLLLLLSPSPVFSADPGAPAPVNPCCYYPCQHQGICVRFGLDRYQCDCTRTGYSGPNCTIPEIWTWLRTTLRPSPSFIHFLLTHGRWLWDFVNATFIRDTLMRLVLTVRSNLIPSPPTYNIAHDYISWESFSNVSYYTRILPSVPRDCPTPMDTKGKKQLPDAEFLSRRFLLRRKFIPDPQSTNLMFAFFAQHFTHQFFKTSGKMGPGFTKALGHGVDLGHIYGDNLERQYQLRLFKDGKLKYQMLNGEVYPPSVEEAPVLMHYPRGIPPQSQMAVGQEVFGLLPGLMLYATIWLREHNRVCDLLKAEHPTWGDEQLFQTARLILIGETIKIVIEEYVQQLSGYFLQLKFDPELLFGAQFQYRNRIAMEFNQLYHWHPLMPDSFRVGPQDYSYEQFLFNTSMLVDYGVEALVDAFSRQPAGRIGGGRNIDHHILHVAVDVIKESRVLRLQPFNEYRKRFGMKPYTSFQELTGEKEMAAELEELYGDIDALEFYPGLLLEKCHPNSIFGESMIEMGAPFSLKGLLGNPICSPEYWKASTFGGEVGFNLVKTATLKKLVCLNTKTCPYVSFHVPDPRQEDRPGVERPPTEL", "test": "Inhibition of Ovine COX-1 by chemiluminescent enzyme method"}, "MCF7 [7]": {"system": "MCF7", "test": "Induction of apoptosis in human MCF7 cells assessed as viable cells at IC50 measured after 72 hrs by Annexin-V/propidium iodide staining-based flow cytometric analysis (reference value: […])", "type": "functional"}, "MCF7 [8]": {"system": "MCF7", "test": "Antiproliferative activity against human MCF-7 cells assessed as reduction in cell viability incubated for 72 hrs by MTT assay", "type": "functional, cell-based", "settings": "MCF7, 72 h"}},
  "data": [
    {"smiles": "COc1ccc(C2=NOC3(Cc4ccccc4C3=O)C2c2ccc(S(C)(=O)=O)cc2)cc1OC", "note": "(configuration not stated)", "values": [
      {"measurement": "Activity", "setting": "MCF7 [1]", "value": 44.7, "unit": "%"},
      {"measurement": "Activity", "setting": "MCF7 [2]", "value": 37.2, "unit": "%"},
      {"measurement": "IC50", "setting": "MCF-10A", "value": "> 100", "unit": "µM"},
      {"measurement": "IC50", "setting": "MCF7 [3]", "value": 10.5, "unit": "µM"},
      {"measurement": "Activity", "setting": "MCF7 [4]", "value": 15.6, "unit": "%"},
      {"measurement": "IC50", "setting": "MCF7 [5]", "value": 1.03, "unit": "µM"},
      {"measurement": "IC50", "setting": "HEK293", "value": "> 100", "unit": "µM"},
      {"measurement": "IC50", "setting": "HT-29", "value": 43.7, "unit": "µM"},
      {"measurement": "IC50", "setting": "[6]", "value": 12.1, "unit": "µM"},
      {"measurement": "Activity", "setting": "MCF7 [7]", "value": 2.5, "unit": "%"},
      {"measurement": "IC50", "setting": "MCF7 [8]", "value": 0.03, "unit": "µM"}
    ]},
    {"smiles": "COc1ccc(C2=NOC3(Cc4ccccc4C3=O)C2c2ccc(S(C)(=O)=O)cc2)cc1", "note": "(configuration not stated)", "values": [
      {"measurement": "IC50", "setting": "MCF-10A", "value": "> 100", "unit": "µM"},
      {"measurement": "IC50", "setting": "MCF7 [5]", "value": "> 100", "unit": "µM"},
      {"measurement": "IC50", "setting": "HEK293", "value": "> 100", "unit": "µM"},
      {"measurement": "IC50", "setting": "HT-29", "value": 68.5, "unit": "µM"},
      {"measurement": "IC50", "setting": "[6]", "value": 9.89, "unit": "µM"},
      {"measurement": "IC50", "setting": "MCF7 [8]", "value": 0.65, "unit": "µM"}
    ]},
    {"smiles": "Cc1ccc(C2=NOC3(Cc4ccccc4C3=O)C2c2ccc(S(C)(=O)=O)cc2)cc1", "note": "(configuration not stated)", "values": [
      {"measurement": "IC50", "setting": "MCF-10A", "value": "> 100", "unit": "µM"},
      {"measurement": "IC50", "setting": "MCF7 [5]", "value": 25.7, "unit": "µM"},
      {"measurement": "IC50", "setting": "HEK293", "value": 82.4, "unit": "µM"},
      {"measurement": "IC50", "setting": "HT-29", "value": 73, "unit": "µM"},
      {"measurement": "IC50", "setting": "[6]", "value": 10.1, "unit": "µM"},
      {"measurement": "IC50", "setting": "MCF7 [8]", "value": 0.17, "unit": "µM"}
    ]},
    {"smiles": "CS(=O)(=O)c1ccc(C2C(c3ccccc3)=NOC23Cc2ccccc2C3=O)cc1", "note": "(configuration not stated)", "values": [
      {"measurement": "IC50", "setting": "MCF-10A", "value": "> 100", "unit": "µM"},
      {"measurement": "IC50", "setting": "MCF7 [5]", "value": 17.1, "unit": "µM"},
      {"measurement": "IC50", "setting": "HEK293", "value": "> 100", "unit": "µM"},
      {"measurement": "IC50", "setting": "HT-29", "value": 239, "unit": "µM"},
      {"measurement": "IC50", "setting": "[6]", "value": 11.4, "unit": "µM"},
      {"measurement": "IC50", "setting": "MCF7 [8]", "value": 8.53, "unit": "µM"}
    ]},
    {"smiles": "COc1cc(C2=NOC3(Cc4ccccc4C3=O)C2c2ccc(S(C)(=O)=O)cc2)cc(OC)c1OC", "note": "(configuration not stated)", "values": [
      {"measurement": "IC50", "setting": "MCF-10A", "value": "> 100", "unit": "µM"},
      {"measurement": "IC50", "setting": "MCF7 [3]", "value": 17.6, "unit": "µM"},
      {"measurement": "IC50", "setting": "MCF7 [5]", "value": 3.96, "unit": "µM"},
      {"measurement": "IC50", "setting": "HEK293", "value": 70.8, "unit": "µM"},
      {"measurement": "IC50", "setting": "HT-29", "value": 112, "unit": "µM"},
      {"measurement": "IC50", "setting": "[6]", "value": 12.8, "unit": "µM"},
      {"measurement": "IC50", "setting": "MCF7 [8]", "value": 0.87, "unit": "µM"}
    ]},
    {"smiles": "CS(=O)(=O)c1ccc(C2C(c3ccc(Cl)cc3)=NOC23Cc2ccccc2C3=O)cc1", "note": "(configuration not stated)", "values": [
      {"measurement": "IC50", "setting": "MCF-10A", "value": 22.5, "unit": "µM"},
      {"measurement": "IC50", "setting": "MCF7 [5]", "value": 64.8, "unit": "µM"},
      {"measurement": "IC50", "setting": "HEK293", "value": 37.7, "unit": "µM"},
      {"measurement": "IC50", "setting": "HT-29", "value": 99.3, "unit": "µM"},
      {"measurement": "IC50", "setting": "[6]", "value": 9.43, "unit": "µM"},
      {"measurement": "IC50", "setting": "MCF7 [8]", "value": 1.2, "unit": "µM"}
    ]},
    {"smiles": "CS(=O)(=O)c1ccc(C2C(c3ccc(F)cc3)=NOC23Cc2ccccc2C3=O)cc1", "note": "(configuration not stated)", "values": [
      {"measurement": "IC50", "setting": "MCF-10A", "value": 3.21, "unit": "µM"},
      {"measurement": "IC50", "setting": "MCF7 [5]", "value": 16.5, "unit": "µM"},
      {"measurement": "IC50", "setting": "HEK293", "value": 0.64, "unit": "µM"},
      {"measurement": "IC50", "setting": "HT-29", "value": 55.4, "unit": "µM"},
      {"measurement": "IC50", "setting": "[6]", "value": 10.8, "unit": "µM"},
      {"measurement": "IC50", "setting": "MCF7 [8]", "value": 0.14, "unit": "µM"}
    ]},
    {"smiles": "Cc1ccc(-c2cc(C(F)(F)F)nn2-c2ccc(S(N)(=O)=O)cc2)cc1", "note": "[CELECOXIB]", "values": [
      {"measurement": "IC50", "setting": "MCF7 [3]", "value": 19.8, "unit": "µM"},
      {"measurement": "IC50", "setting": "MCF7 [5]", "value": 16, "unit": "µM"},
      {"measurement": "IC50", "setting": "HT-29", "value": 18, "unit": "µM"}
    ]},
    {"smiles": "COc1cccc2c1C(=O)c1c(O)c3c(c(O)c1C2=O)C[C@@](O)(C(=O)CO)C[C@@H]3O[C@H]1C[C@H](N)[C@H](O)[C@H](C)O1", "note": "[DOXORUBICIN]", "values": [
      {"measurement": "IC50", "setting": "HT-29", "value": 1.57, "unit": "µM"}
    ]},
    {"smiles": "CC[C@]1(O)C[C@@H]2CN(CCc3c([nH]c4ccccc34)[C@@](C(=O)OC)(c3cc4c(cc3OC)N(C)[C@H]3[C@@](O)(C(=O)OC)[C@H](OC(C)=O)[C@]5(CC)C=CCN6CC[C@]43[C@@H]65)C2)C1", "note": "[VINBLASTINE]", "values": [
      {"measurement": "IC50", "setting": "MCF7 [3]", "value": 0.23, "unit": "µM"},
      {"measurement": "IC50", "setting": "HT-29", "value": 3.18, "unit": "µM"}
    ]},
    {"smiles": "CC[C@]1(O)C[C@H]2CN(CCc3c([nH]c4ccccc34)[C@@](C(=O)OC)(c3cc4c(cc3OC)N(C=O)[C@H]3[C@@](O)(C(=O)OC)[C@H](OC(C)=O)[C@]5(CC)C=CCN6CC[C@]43[C@@H]65)C2)C1", "note": "[VINCRISTINE]", "values": [
      {"measurement": "IC50", "setting": "MCF7 [3]", "value": 0.92, "unit": "µM"},
      {"measurement": "IC50", "setting": "HT-29", "value": 1.74, "unit": "µM"},
      {"measurement": "IC50", "setting": "MCF7 [8]", "value": 0.89, "unit": "µM"}
    ]}
  ]
}
